Measured values: patent US20220331286A1, “CANNABIS LIMITS CANCER STEM CELL GROWTH IN POORLY DIFF[…]” (The Regents of the University of California, priority 2021, published 2022)
“Also recorded” adds a separate entry of the source.

What was measured:
breast cancer cell lines = conditions: not normal breast epithelium; cited from earlier work
[1] = system: Oral squamous carcinoma cells (OSCCs); assay: Viable cell count (Trypan Blue) after treatment; type: cell-based, human
Procedure: (§1) Oral squamous carcinoma cells (OSCCs) and oral squamous carcinoma stem cells (OSCSCs) were isolated from cancer patients with tongue tumors at UCLA. The cells were cultured in RPMI 1640 complete medium with 10% fetal bovine serum (FBS) 1.4% Antibiotic-Antimycotic, 1% sodium pyruvate, 1.4% non-essential amino acids, 1% L-glutamine, 0.2% gentamicin (Gemini Bio-Products, CA, USA), and 0.15% sodium bicarbonate (Fisher Scientific, PA, USA).
(§2) As shown in FIG. 1A-1E, OSCSCs are affected more by WIN 55,212-2 than OSCCs. Both OSCCs (oral squamous carcinoma cells) and OSCSCs (oral squamous carcinoma stem cells) were treated with various concentrations of WIN 55,212-2 (10, 25, 50, and 100 μM) and CDDP (50 μg/ml), and the cell numbers were determined after 24 hours of treatment.
(§3) RPMI 1640 (Gibco, Thermo Fisher Scientific, USA) complete medium with 10% fetal bovine serum (FBS) (Gemini Bio-Products, San Diego, Calif., USA), 1.4% of non-essential amino acid (Gibco, Thermo Fisher Scientific, USA), 1.4% sodium pyruvate (Gibco, Thermo Fisher Scientific, USA), 0,15% of sodium bicarbonate (Fisher Scientific, Waltham, Mass., USA) and 1% antibiotics/antimycotics (Gemini Bio-Products, San Diego, Calif., USA) was used for oral tumor culture. DMEM (Gibco, Thermo Fisher Scientific, USA) supplemented with 10% FBS and 1% antibiotics/antimycotics was used for pancreatic tumor cell culture. Oral squamous carcinoma cells (OSCCs) and oral squamous carcinoma stem cells (OSCSCs) were isolated from cancer patients with tongue tumor at UCLA. Human pancreatic cancer cell lines MIA PaCa-2 (MP2) and PL-12 were generously provided by Dr. Guido Eibl (UCLA David Geffen School of Medicine) and by Dr. Nicholas Cacalano (UCLA Jonsson Comprehensive Cancer Center), respectively. […] CDDP was purchased from Ronald Reagan UCLA Medical Center Pharmacy. […] TNF-α and IFN-γ were purchased from Peprotech (Rockyhill, N.J.).
(§4) The number of viable cells was counted under light microscope using Trypan Blue staining (Sigma, Mo., USA).

[2] = system: oral squamous carcinoma stem cells (OSCSCs); assay: Viable cell count (Trypan Blue) after treatment; type: cell-based, human; conditions: WIN 55,212-2 10, 25, 50, 100 μM; CDDP 50 μg/ml; 24 hours
Procedure: as §1, §2, §3, §4

[3] = system: PL-12 well-differentiated pancreatic tumor cells; assay: Viable cell count (Trypan Blue) after treatment; type: cell-based, human; conditions: various concentrations of WIN 55,212-2; CDDP 50 μg/ml
Description: Six different pancreatic tumor cell lines each characterized at poorly, intermediate and well differentiated stages pathologically by other laboratories previously were used to determine phenotype, susceptibility to NK cell-mediated cytotoxicity and secretion of IFN-γ directly correlating with the differentiation stages of the tumors. […] Furthermore, the stage of differentiation of the tumors was correlated with sensitivity to NK cell mediated cytotoxicity in pancreatic tumor cells. […] Therefore, a direct correlation between augmented sensitivity to NK-mediated lysis and poor differentiation of pancreatic tumors was evident from these experiments. For the following experiments MP2 and PL12 were used as representative tumor types for poorly differentiated and well differentiated tumors respectively. Human pancreatic cancer cell line MIA PaCa-2 (MP2), was provided by Dr. Guido Eibl (UCLA David Geffen School of Medicine) and PL12 was provided by Dr. Nicholas Cacalano (UCLA Jonsson Comprehensive Cancer Center). MP2 tumors were cultured with DMEM in supplement with 10% FBS and 1% Penicillin-Streptomycin (Gemini Bio-Products, CA). PL12 pancreatic tumors were cultured in RMPI 1640 medium supplemented with 10% FBS and 1% penicillin-streptomycin.
as §3, §4

[4] = system: Oral squamous carcinoma cells (OSCCs); assay: Cell death by propidium iodide staining and flow cytometry; type: cell-based, human; conditions: CDDP 50 μg/mL, 24 hours
Procedure: After an overnight incubation the cells were washed twice and stained with propidium iodide (PI) at a concentration of 3 μg/ml. Flow cytometric analysis was performed using Attune flow cytometer results were analyzed using FlowJo vX software (Ashland, Oreg.).

[5] = system: PL-12 well-differentiated pancreatic tumor cells; assay: as above; type: cell-based, human; conditions: CDDP 50 μg/mL
Description: Propidium iodide (PI) staining was used to determine the cell death by flow cytometry.

[6] = system: Oral squamous carcinoma cells (OSCCs); assay: Microscopy of cell morphology and viability; type: cell-based, human; conditions: WIN 55,212-2 50 μM or higher; CDDP 50 μg/mL; 24 h
[7] = system: oral squamous carcinoma stem cells (OSCSCs); assay: Microscopy of cell morphology and viability; type: cell-based, human; conditions: WIN 55,212-2 even at the lowest concentrations; CDDP 50 μg/mL; 24 h
[8] = system: PL-12 well-differentiated pancreatic tumor cells; assay: Microscopy of cell morphology and viability; type: cell-based, human; conditions: different concentrations of WIN 55,212-2; CDDP 50 μg/mL; 24 hours
[9] = system: MIA PaCa-2 (MP2) poorly differentiated/stem like pancreatic tumor cells; assay: Microscopy of cell morphology and viability; type: cell-based, human; conditions: different concentrations of WIN 55,212-2; CDDP 50 μg/mL; 24 hours

In the case of `C=C(C)[C@@H]1CCC(C)=C[C@H]1c1c(O)cc(CCCCC)cc1O` [CBD, Cannabidiol], the “effect on radiotherapy / anti-proliferative effects of radiation” value (breast cancer cell lines) is given as “failed to enhance anti-proliferative effects of radiation”.

With `N.N.[Cl][Pt][Cl]` [CDDP, cis-diaminedichloridoplatinum (II)] the “inhibition of cell growth, OSCCs compared with OSCSCs” value ([1]; CDDP 50 μg/mL, 24 h) was “inhibit cell growth of OSCCs more than those seen with OSCSCs”, the “killing / decrease in cell numbers of OSCCs, in words” value ([1]; WIN 55,212-2 10, 25, 50, 100 μM, CDDP 50 μg/ml, 24 hours) was “killed significantly; also recorded: greater decreases in cell numbers” and the “killing / decrease in cell numbers of OSCSCs, in words” value [2] was “not killed”. For the same compound, the “percent decrease in cell numbers of PL12, in words” value [3] was “greater decrease in cell numbers”, the “cell death in OSCCs compared with OSCSCs (PI staining)” value [4] was “significant cell death in OSCCs when compared to OSCSCs; also recorded: more cell death in OSCCs when compared to OSCSCs” and the “cell death in PL-12 compared with MP2 (PI staining)” value [5] was “higher in PL-12 in the representative experiment (FIG. 16B) and similar in compiled data”. For the same compound, the “morphology/viability of OSCCs under the microscope” value [6] was “loss of morphology, and the majority were detached from the plates”, the “morphology/attachment of OSCSCs under the microscope” value [7] was “the majority of these cells were still attached to the cell culture plate” and the “morphology/viability of PL-12 under the microscope” value [8] was “affected both PL-12 and MP2 morphologically”. For the same compound, the “morphology/viability of MP2 under the microscope” value [9] was “affected both PL-12 and MP2 morphologically”.

In the case of `CCCCCc1cc(O)c2c(c1)OC(C)(C)[C@@H]1CCC(C)=C[C@@H]21` [THC, Tetrahydrocannabinol], the “effect on radiotherapy / anti-proliferative effects of radiation” value (breast cancer cell lines) is listed as “failed to enhance anti-proliferative effects of radiation”.

In the case of `CCCCCCC(C)(C)c1cc(O)c2c(c1)OC(C)(C)C1CCC(=O)CC21` (stereo not shown) [nabilone], the “effect on radiotherapy / anti-proliferative effects of radiation” value (breast cancer cell lines) is listed as “failed to enhance anti-proliferative effects of radiation”.
